Assay: Safety of intranasal naloxone in humans (Study 2): nasal irritation, adverse events, vital signs, ECG
Assay type: in vivo, human
Excerpt: Specifically, the study had several objectives.
AEs were coded using the most recent version of the Medical Dictionary for Regulatory Activities (MedDRA) preferred terms and grouped by system, organ, class (SOC) designation. Separate summaries will be provided for the 5 study periods: after the administration of each dose of study drug up until the time of the next dose of study drug or clinic discharge. Listings of each individual AE including start date, stop date, severity, relationship, outcome, and duration were provided. Results are given below in Tables 12 and 13.

C=CCN1CC[C@]23c4c5ccc(O)c4O[C@H]2C(=O)CC[C@@]3(O)[C@H]1C5 [naloxone, 17-allyl-4,5a-epoxy-3,14-dihydroxymorphinan-6-one]
Dizziness (adverse events) (0.4 mg Intramuscular Dose): 1
Headache (adverse events) (0.4 mg Intramuscular Dose): 1
Nausea (adverse events) (0.4 mg Intramuscular Dose): 1
Edema (events related to nasal irritation) (2 mg (20 mg/mL, one spray)): 2
Erythema (events related to nasal irritation) (2 mg (20 mg/mL, one spray)): 4
Nasal Pain (adverse events) (2 mg (20 mg/mL, one spray)): 1
Other (events related to nasal irritation) (2 mg (20 mg/mL, one spray)): 1
Total (events related to nasal irritation) (2 mg (20 mg/mL, one spray)): 7
Edema (events related to nasal irritation) (4 mg (20 mg/mL, two sprays)): 0
Erythema (events related to nasal irritation) (4 mg (20 mg/mL, two sprays)): 1
Other (events related to nasal irritation) (4 mg (20 mg/mL, two sprays)): 0
Total (events related to nasal irritation) (4 mg (20 mg/mL, two sprays)): 1
Edema (events related to nasal irritation) (4 mg (40 mg/mL, one spray)): 2
Erythema (events related to nasal irritation) (4 mg (40 mg/mL, one spray)): 1
Other (events related to nasal irritation) (4 mg (40 mg/mL, one spray)): 0
Total (events related to nasal irritation) (4 mg (40 mg/mL, one spray)): 3
Edema (events related to nasal irritation) (8 mg (40 mg/mL, two sprays)): 1
Erythema (events related to nasal irritation) (8 mg (40 mg/mL, two sprays)): 0
Headache (adverse events) (8 mg (40 mg/mL, two sprays)): 1
Other (events related to nasal irritation) (8 mg (40 mg/mL, two sprays)): 0
Total (events related to nasal irritation) (8 mg (40 mg/mL, two sprays)): 1
Relation of nasal irritation to the dose of naloxone given (2 to 8 mg IN): did not appear to be positively related to the dose
QTcF prolongation (Study 2): no evidence of QTcF prolongation
Vital signs, ECG, and clinical laboratory parameters (after naloxone administration, Study 2): did not reveal any clinically noteworthy changes
Adverse events overall (nasal or intramuscular administration, Study 2): few adverse events were reported

Source: patent US20160008277A1, “CO-PACKAGED DRUG PRODUCTS” (Lightlake Therapeutics Inc., priority 2014, published 2016)
